“And” between values parts separate entries of the source, which are not always exact repeats. Equal entries are not always repeated. Blank lines part the entries; values can stand above or below the compound they belong to.
Tests used:
platelets (rabbit blood) = test: Inhibition of platelet aggregation in vitro (rabbit blood), ADP-induced, turbidimetric; assay type: cell-based, New Zealand white rabbits; details: Oryctolagus cuniculus, rabbit PRP, ADP final concentration 10 μM
Text: Blood was collected from New Zealand white rabbits (body weight 1-1.5 kg). After the animal was anesthetized with 10% chloral hydrate, the animal was placed supinely on the rabbit board, precordial hair was cut off, and the skin was disinfected with iodine and alcohol. Touch with left hand the 3rd to 4th intercostal space on the left edge of the sternum. Chose the most obvious place for the puncture point. Held the syringe in right hand and insert the needle into the chest cavity. Inserted the needle into the heart and then draw out the blood when feel the heart beating through the needle. […] assay system with a total volume of 300 μL, that is, 280 μL of diluted PRP was taken and placed in a turbidimetric tube, and was incubated with 10 μL of drug or solvent control at 37° C. for 5 minutes, and then 10 μL of different inducers such ADP (final concentration 10 μM) were added to determine the maximum platelet aggregation rate within 5 minutes. Repeation was taken at least three times […].
Platelet-rich plasma (PRP) was obtained by centrifuging blood at 1200 rpm for 10 minutes, and platelet aggregation was measured as described above. […] The platelet density in PRP is counted with a hemocytometer and diluted with platelet-poor plasma (PPP). […]

human platelets [1] = test: Thrombin-induced human platelet aggregation (PRP, turbidimetric); assay type: cell-based; details: for inhibition at 0.003 µM: concentration 0.003 μM; for IC50: read-out: IC50 on thrombin-induced platelet aggregation rate
Procedure: Volunteers' whole blood was drawn from venous blood with 1:6 D-citrate ACD (85 mmol/L sodium citrate, 71.38 mmol/L citrate, 27.78 mmol/L glucose) for anticoagulation, and centrifuged at 300 g at room temperature for 10 minutes, platelet rich plasma (PRP) was separated.
(§1) The turbidimetric platelet aggregation test was performed on the Chrono-Log Company's dual-channel optical platelet aggregation instrument. The speed of the icon recorder was set to 1 cm/min, and the aggregation curve was recorded. First, the platelet aggregator was preheated to 37° C., and 400 μL platelet suspension and stir bar were added to the turbidity tube, PPP was used as a reference, and traced the baseline under constant magnetic stirring at 37° C. After the baseline is stable, with the experiment plan, different concentrations of antagonists or other reagents were added to treat platelets for 2 minutes, and then the inducer ADP was added to observe and record changes in the aggregation curve.

human platelets [2] = test: ADP-induced aggregation of human platelets (PRP, turbidimetric); assay type: cell-based; details: for inhibition at 0.005 µM: concentration 0.005 μM; for inhibition at 0.01 µM: concentration 0.01 μM; for inhibition at 5 µM: concentration 5 μM; for inhibition at 10 µM: concentration 10 μM; for IC50: read-out: IC50 of compound on ADP-induced platelet aggregation rate
Procedure: Volunteers' whole blood was drawn from venous blood with 1:6 dextro-citrate ACD (85 mmol/L sodium citrate, 71.38 mmol/L citrate, 27.78 mmol/L glucose) for anticoagulation, and centrifuged at 300 g at room temperature for 10 minutes, platelet rich plasma (PRP) was separated.
as §1, with “C.,” for “C., and”, “tube, use” for “tube,”, “PPP” for “PPP was used”, “baseline was” for “baseline is”, “with” for “with the”

arterial thrombosis = test: SD male rat arteriovenous short circuit thrombosis model (A-V shunt); assay type: in vivo, male SD rats
Procedure: Cut the surgical wire with a length of 6 cm, weigh and recorded it on an analytical balance (about 2 mg dry weight), and placed it in a thick polyethylene tube with a length of 6 cm. Inserted a thin tube at each end of the thick tube spare. Male SD rats were intragastrically administered for 4 hours, anesthetized with pentobarbital 60 mg/kg, separated the common carotid artery and common jugular vein, connected the arteries and veins with the above polyethylene tube, opened the blood flow for 15 minutes, removed the surgical line and weighed (WW).

human platelets [3] = test: Collagen-induced aggregation of human platelets (PRP, turbidimetric); assay type: cell-based
Procedure: Volunteers' whole blood was drawn from venous blood with 1:6 dextro-citrate ACD (85 mmol/L sodium citrate, 71.38 mmol/L citrate, 27.78 mmol/L glucose) for anticoagulation, and centrifuged at 300 g at room temperature for 10 Minutes, separate platelet rich plasma (PRP).
as §1, with “was” for “is”, “antagonist” for “antagonists”, “then” for “then the”, “collagen” for “ADP”
The platelet aggregation rate of the solvent control group was set to be 100%. The inhibitory effects of the compounds on normal human platelet aggregation induced by collagen at different concentrations were as follows: […]

[4] = Homo sapiens, Platelet, 0.5 U/ml thrombin, read-out: Aggregation inhibition rate %
[5] = Homo sapiens, Platelet, 0.5 U/ml thrombin, concentration 0.01 μM, read-out: Aggregation inhibition rate %
[6] = Homo sapiens, Platelet, 0.5 U/ml thrombin, concentration 20 μM, read-out: Aggregation inhibition rate %
[7] = Homo sapiens, Platelet, column 1
[8] = Homo sapiens, Platelet, column 2
[9] = Homo sapiens, Platelet, column 3
[10] = 10 μM ADP, concentration 0.1 μM
[11] = Homo sapiens, Platelet, 10 μM ADP, read-out: Aggregation inhibition rate %
[12] = Homo sapiens, Platelet, 10 μM ADP, concentration 3 μM, read-out: Aggregation inhibition rate %
[13] = 1 μg/ml collagen, concentration 0.01 μM, 0.01 µM
[14] = Homo sapiens, Platelet, 1 μg/ml collagen, concentration 3 μM, read-out: Aggregation inhibition rate %
[15] = Homo sapiens, Platelet, column 1, read-out: IC50 of compound on collagen-induced platelet aggregation rate
[16] = Homo sapiens, Platelet, column 2, read-out: IC50 of compound on collagen-induced platelet aggregation rate
[17] = Homo sapiens, Platelet, column 3, read-out: IC50 of compound on collagen-induced platelet aggregation rate

IC50 (platelets (rabbit blood)): 334 nM
SMILES: CCC(=O)NC(=N)Nc1ccc(C2=NNC(=O)CC2C)cc1 (stereo not drawn)

SMILES: CC1CC(=O)NN=C1c1ccc(NC(=N)N)cc1 (stereo not drawn) [No. 1, 1-(4-(4-methyl-6-oxo-1,4,5,6-tetrahydropyridazin-3-yl)phenyl)guanidine]
Aggregation inhibition rate % (human platelets [1]; 0.5 U/ml thrombin, concentration 0.01 μM, 0.01 µM): 2.81%
Aggregation inhibition rate % (human platelets [1]; 0.5 U/ml thrombin, concentration 0.1 μM, 0.1 µM): 46.03% and 40.98% and 65.21%
Aggregation inhibition rate % (human platelets [1]; 0.5 U/ml thrombin, concentration 0.3 μM, 0.3 µM): 80.95% and 89.85%
Aggregation inhibition rate % (human platelets [1]; 0.5 U/ml thrombin, concentration 1 μM, 1 µM): 95.83% and 97.33%
inhibition at 0.003 µM (human platelets [1]; [4]): 0%
inhibition at 0.01 µM (human platelets [1]; [5]): 3.08%
inhibition at 0.3 µM (human platelets [1]; Homo sapiens, Platelet, 0.5 U/ml thrombin, concentration 0.3 μM, read-out: Aggregation inhibition rate %): 71.4%
inhibition at 1 µM (human platelets [1]; Homo sapiens, Platelet, 0.5 U/ml thrombin, concentration 1 μM, read-out: Aggregation inhibition rate %): 85.7%
inhibition at 3 µM (human platelets [1]; Homo sapiens, Platelet, 0.5 U/ml thrombin, concentration 3 μM, read-out: Aggregation inhibition rate %): 100%
inhibition at 10 µM (human platelets [1]; Homo sapiens, Platelet, 0.5 U/ml thrombin, concentration 10 μM, read-out: Aggregation inhibition rate %): 100%
inhibition at 20 µM (human platelets [1]; [6]): 100%
IC50 (human platelets [1]; [7]): 194 nM
IC50 (human platelets [1]; [8]): 140 nM
IC50 (human platelets [1]; [9]): 78 nM
Aggregation inhibition rate % (human platelets [2]; 10 μM ADP, concentration 0.03 μM, listed as Compound No.1): 17.39%
Aggregation inhibition rate % (human platelets [2]; 10 μM ADP, concentration 0.03 μM, listed as No.1 Compound): 49.01%
Aggregation inhibition rate % (human platelets [2]; [10]): 37.68%
Aggregation inhibition rate % (human platelets [2]; 10 μM ADP, concentration 0.3 μM, listed as Compound No.1): 39.13%
Aggregation inhibition rate % (human platelets [2]; 10 μM ADP, concentration 0.3 μM, listed as No.1 Compound): 62.74%
Aggregation inhibition rate % (human platelets [2]; 10 μM ADP, concentration 1 μM, listed as Compound No.1): 42.02%
Aggregation inhibition rate % (human platelets [2]; 10 μM ADP, concentration 1 μM, listed as No.1 Compound): 66.67%
Aggregation inhibition rate % (human platelets [2]; 10 μM ADP, concentration 3 μM): 51.88%
inhibition at 0.005 µM (human platelets [2]; [11]): 2.99%
inhibition at 0.01 µM (human platelets [2]; [11]): 8.69%
inhibition at 0.1 µM (human platelets [2]; Homo sapiens, Platelet, 10 μM ADP, concentration 0.1 μM, read-out: Aggregation inhibition rate %): 43.1%
inhibition at 3 µM (human platelets [2]; [12]): 71.6%
inhibition at 5 µM (human platelets [2]; [11]): 81.4%
inhibition at 10 µM (human platelets [2]; [11]): 95.1%
IC50 (human platelets [2]; [7]): 97 nM
IC50 (human platelets [2]; [8]): 1080 nM
IC50 (human platelets [2]; [9]): 154 nM
IC50 (platelets (rabbit blood)): 197 nM
Thrombus wet weight (arterial thrombosis; 10 mg/kg intragastric, 4 hours before, blood flow 15 minutes, individual values): 11.7 mg and 11.5 mg and 12.1 mg
weight of arterial thrombus in rats (arterial thrombosis; intragastric administration): significantly reduced
inhibitory effect on platelet aggregation induced by collagen (human platelets [3]; 1 μg/ml collagen): significant inhibitory effect
Aggregation inhibition rate % (human platelets [3]; [13]): 8.96% and 10.94%
Aggregation inhibition rate % (human platelets [3]; 1 μg/ml collagen, concentration 0.3 μM, 0.3 µM): 79.10% and 44.78% and 54.69%
Aggregation inhibition rate % (human platelets [3]; 1 μg/ml collagen, concentration 1 μM, 1 µM): 80.59% and 95.31%
inhibition at 0.003 µM (human platelets [3]; Homo sapiens, Platelet, 1 μg/ml collagen, concentration 0.003 μM, read-out: Aggregation inhibition rate %): 5.97%
inhibition at 0.01 µM (human platelets [3]; Homo sapiens, Platelet, 1 μg/ml collagen, concentration 0.01 μM, read-out: Aggregation inhibition rate %): 10.4%
inhibition at 1 µM (human platelets [3]; Homo sapiens, Platelet, 1 μg/ml collagen, concentration 1 μM, read-out: Aggregation inhibition rate %): 95.9%
inhibition at 3 µM (human platelets [3]; [14]): 100%
IC50 (human platelets [3]; Homo sapiens, Platelet, 1 μg/ml collagen, read-out: IC50 on platelet aggregation induced by collagen): 157 nM
IC50 (human platelets [3]; [15]): 95 nM
IC50 (human platelets [3]; [16]): 233 nM
IC50 (human platelets [3]; [17]): 143 nM

SMILES: CCCSc1nc(N[C@@H]2C[C@H]2c2ccc(F)c(F)c2)c2nnn([C@@H]3C[C@H](OCCO)[C@@H](O)[C@H]3O)c2n1 [Ticagrelor, reference compound]
Aggregation inhibition rate % (human platelets [1]; 0.5 U/ml thrombin, concentration 3 μM, 3 µM): 69.84% and 49.33% and 92.53%
Aggregation inhibition rate % (human platelets [1]; 0.5 U/ml thrombin, concentration 10 μM, 10 µM): 80.95% and 55.41%
Aggregation inhibition rate % (human platelets [1]; 0.5 U/ml thrombin, concentration 20 μM, 20 µM): 81.33%
inhibition at 0.003 µM (human platelets [1]; [4]): 0%
inhibition at 0.01 µM (human platelets [1]; [5]): 0%
inhibition at 20 µM (human platelets [1]; [6]): 95.2%
IC50 (human platelets [1]; [7]): 851 nM
IC50 (human platelets [1]; [8]): 4020 nM
IC50 (human platelets [1]; [9]): 161 nM
Aggregation inhibition rate % (human platelets [2]; 10 μM ADP, concentration 0.03 μM): 13.69%
Aggregation inhibition rate % (human platelets [2]; [10]): 15.06%
Aggregation inhibition rate % (human platelets [2]; 10 μM ADP, concentration 0.3 μM): 20.54%
Aggregation inhibition rate % (human platelets [2]; 10 μM ADP, concentration 1 μM): 57.53%
Aggregation inhibition rate % (human platelets [2]; 10 μM ADP, concentration 3 μM): 86.30%
inhibition at 0.005 µM (human platelets [2]; [11]): 0%
inhibition at 0.01 µM (human platelets [2]; [11]): 4.11%
inhibition at 3 µM (human platelets [2]; [12]): 100%
inhibition at 5 µM (human platelets [2]; [11]): 100%
inhibition at 10 µM (human platelets [2]; [11]): 100%
IC50 (human platelets [2]; [7]): 72 nM
IC50 (human platelets [2]; [8]): 963 nM
IC50 (human platelets [2]; [9]): 261 nM
Aggregation inhibition rate % (human platelets [3]; 1 μg/ml collagen, concentration 0.003 μM, 0.003 µM): 4.23% and 1.45%
Aggregation inhibition rate % (human platelets [3]; [13]): 8.69% and 2.98% and 9.86%
Aggregation inhibition rate % (human platelets [3]; 1 μg/ml collagen, concentration 0.03 μM, 0.03 µM): 8.95% and 15.49%
Aggregation inhibition rate % (human platelets [3]; 1 μg/ml collagen, concentration 3 μM, 3 µM): 66.17% and 64.78%
Aggregation inhibition rate % (human platelets [3]; 1 μg/ml collagen, concentration 10 μM, 10 µM): 75% and 92.95%
inhibition at 0.03 µM (human platelets [3]; Homo sapiens, Platelet, 1 μg/ml collagen, concentration 0.03 μM, read-out: Aggregation inhibition rate %): 13%
inhibition at 3 µM (human platelets [3]; [14]): 75.4%
inhibition at 10 µM (human platelets [3]; Homo sapiens, Platelet, 1 μg/ml collagen, concentration 10 μM, read-out: Aggregation inhibition rate %): 82.6%
inhibition at 20 µM (human platelets [3]; Homo sapiens, Platelet, 1 μg/ml collagen, concentration 20 μM, read-out: Aggregation inhibition rate %): 100%
IC50 (human platelets [3]; [15]): 888 nM
IC50 (human platelets [3]; [16]): 532 nM
IC50 (human platelets [3]; [17]): 908 nM

Source: patent US11512056B2 (Anhui New Star Pharmaceutical Development Co., Ltd, priority 2018, dated 2022)
